Results: patent US4322545A, “Benzoic acid esters” (priority 1981, dated 1982)

Legend:
[1] = Ease of emulsification, water content of oil phase by Karl Fisher; type: physicochemical; conditions: 20 ml toluene + 20 ml test solvent + 20 ml water, 40° C., 15 minutes
Experimental: In this Example, the emulsifying properties of the compositions of the invention were compared to various commonly used solvents and to mixes of benzoates.
Tests were conducted by adding exactly 20 ml of toluene to 20 ml of the test solvent in a glass stoppered cylinder and shaking to mix. When mixed, 20 ml of water was then added, the resulting mixture warmed to 40° C. and shaken 30 times.

[2] = tested on: skin; conditions: in vivo; cited from earlier work
[3] = Spreading Coefficient and interfacial tension against water; type: physicochemical
Excerpt: The higher the Spreading Coefficient, the greater the spreadability.

[4] = Gel formation/settling with suspending agents; type: physicochemical
Excerpt: Gel formation refers to the ability of an emollient oil to form gels with suspending agents such as quaternized hectorite (such as Bentone 38) or stearalkonium (Bentone 37).
The viscosity of a gel is dependent on the polarity of the organic liquid it is suspended in. The more polar the liquid, the lower the viscosity. Non-polar or low polarity organic liquids result in higher viscosities. Completely non-polar liquids may present a problem in that too high viscosities results in a low percentage of a gellant. Upon further dilution (as normally occurs in formulation work), the ability to suspend matter can be lost in these instances.
Desirably, basic gel cocentrates and formulation containing same, should show stability to a wide range of temperatures without phase separation--which would destroy the gel viscosity and suspending capabilities. In addition, the basic function of such gels is to suspend an active material present in a formulation as a particulate matter. In a system such as aerosol antiperspirants, the active is aluminum chlorhydrate present as insoluble particulates, with a particle size ranging from submicron to about 50 microns. Before use, the container is shaken to re-dispense the particulates in suspension as to provide the proper dosage of activities. Re-dispersion should be immediate, complete, and last for a period of time sufficient for proper application. […]

[5] = Cloud point and pour point; type: physicochemical
Experimental: "Cloud point", refers to the temperature at which a waxy solid material appears as the liquid composition being examined is cooled. Cloud points are also associated with pour points, which is the lowest temperature at which a liquid will flow when a container is inverted. In all cases as the temperature is lowered, the cloud point is detected first, with the pour point being generally 5°-25° F. lower.

[6] = Greasiness comparison on skin; conditions: 70°-73°F
Excerpt: A comparison of the composition of the present invention was undertaken with a single benzoate ester falling within the carbon chain length range encompassed in the mixtures of the invention. […] This ester product is the benzoic acid ester of a mixture of C12, C13, C14 and C15 alcohols corresponding to that contained in the NEODOL 25 alcohol.

[7] = tested on: rats; conditions: Example 13; no source given; cited from earlier work

**Q.** What does the source list for CCCCCCCCCCCCCC(=O)OC(C)C [IPM (isopropyl myristate), isopropyl myristate]?
**A.** % Water in Oil Phase (upper layer; by K-F Method) [1]: 0.12%; Skin irritation [2]: suspect as an irritant; Spreading Coefficient [3]: 17.7 dynes/cm; interfacial tension against water ([3]; 25° C.): 17. dynes/cm

**Q.** For CCCCCCCCCCCCCCCC(=O)OC(C)C [IPP (isopropyl palmitate), isopropyl palmitate], which “% Water in Oil Phase (upper layer; by K-F Method)” value [1] is on record?
**A.** 0.66%

**Q.** For CCCCCCCCCCCCCCOC(=O)c1ccccc1 [Myristyl benzoate, myristyl (C14) benzoate], which Settling time [4] is on record?
**A.** 60 to 90 s

**Q.** And the Gel viscosity ([4]; used as the organic liquid for the gel)?
**A.** abnormally high viscosities

**Q.** And the Cloud point [5]?
**A.** 21 °C

**Q.** What about the “Physical state at ambient room temperature” value [6] of the same compound?
**A.** virtually a solid

**Q.** With CCCCOC(=O)c1ccccc1 [butyl benzoate] as the compound, how does the “LD50 (comparison ester)” value [7] read?
**A.** 3.5 g/kg of body weight

**Q.** For Octyl Isononanoate, which “% Water in Oil Phase (upper layer; by K-F Method)” value [1] is on record?
**A.** 0.26%
